Patent US5565489A, “Epoxycyclohexenedione derivatives” (Kyowa Hakko Kogyo Co., Ltd., priority 1993, dated 1996)
≈ marks a conversion by molar mass, not a printed value.

What was measured:
FTase [1] = biological target: T1, FTase (Bos taurus, UniProt P29702+P49355); test: FTase inhibitory activity (farnesylation of C-terminal peptide of lamin B, crude bovine brain enzyme, FTase [^3 H]SPA enzyme assay kit); type: biochemical; details: for inhibitory activity against FTase (in words): Table 2 summary; for IC50: bovine brain enzyme, lamin B C-terminal peptide
T1 construct: An extract of minced bovine brain was subjected to column chromatography on DEAE-Sephacel (Pharmacia); from tissue; host or cells: bovine brain; DEAE-Sephacel active fraction, crude enzyme solution
Protocol: (§1) FTase Inhibitory Activity
An extract of minced bovine brain was subjected to column chromatography on DEAE-Sephacel (Pharmacia). The active fraction was concentrated by ultrafiltration and dialyzed against a mixture of 20 mM Tris-HCl (pH 8.0), 50 mM NaCl, […], 1 mM DTT, 0.2 mM phenylmethylsulfonyl fluoride (PMSF). The resulting dialysate was used as a crude enzyme solution. Measurement of activity was carried out by using the enzyme obtained by the above-mentioned method and an FTase [^3 H]SPA enzyme assay kit (Amersham). Enzyme inhibitory activity was measured as inhibition of farnesylation of the C-terminal peptide of lamin B by the test compound in the above-mentioned reaction system. The enzyme inhibitory activity of a group treated with a test compound of a known concentration was compared with that of a non-treated group to calculate the concentration of the test compound for 50% inhibition of farnesylation (IC50).

[2] = test system: Bacillus subtilis No. 10707; test: Antimicrobial activity, agar dilution method (BS); type: cell-based; details: pH 7
Protocol: (§2) Antimicrobial activity was measured by an agar dilution method using a culture medium (pH 7) prepared by dissolving 3 g of Bacto-tryptone (Difco), 3 g of meat extract, 1 g of yeast extract, 1 g of glucose, and 16 g of agar in 1 l of water. The antimicrobial activity was expressed in terms of minimum growth inhibitory concentration (MIC).

[3] = test system: Staphylococcus aureus ATCC 6538P; test: Antimicrobial activity, agar dilution method (SA); type: cell-based; details: ATCC6538P, pH 7
Protocol: as §2

[4] = test system: Enterococcus faecium ATCC 10541; test: Antimicrobial activity, agar dilution method (EF); type: cell-based; details: ATCC10541, pH 7
Protocol: as §2

[5] = test system: Staphylococcus aureus, Enterococcus faecium, Bacillus subtilis; test: Antimicrobial activity, agar dilution method (summary of Table 4); type: cell-based; details: Table 4 summary
Protocol: as §2

FTase [6] = biological target: T2, FTase (Rattus norvegicus, UniProt Q02293+Q04631); test: FTase inhibitory activity (farnesylation of v-Ki-ras p21, partially purified rat brain FTase); type: biochemical; details: for IC50: rat brain FTase, v-Ki-ras p21 substrate
T2 construct: The FTase used for the assay was obtained from rat brain as follows; from tissue; host or cells: male rat brain; ammonium sulfate fraction, Mono Q 10/10, partially purified
Protocol: as §1
The FTase used for the assay was obtained from rat brain as follows. An extract of minced brain of a male rat was salted out using ammonium sulfate. The fraction obtained at 50% saturation was dissolved in a buffer solution (20 mM Tris-HCl, pH 7.5, 1 mM dithiothreitol (DTT), 20 μM ZnCl2) and further fractionated by column chromatography using a Mono Q 10/10 column. The column was eluted by gradient elution with 0.3 to 0.4 M NaCl. The active fraction eluted at near 0.35 M NaCl, was used as a partially purified preparation. Measurement of the activity was carried out by using the thus prepared enzyme and v-Ki-ras p21 as a substrate. The v-Ki-ras p21, used as a substrate, was obtained by high expression using Escherichia coli, followed by purification according to the method of Tamaoki, et al. [Biochem. Biophys. […] The enzyme inhibitory activity was measured as inhibition of the test compound on farnesylation of the C-terminal of v-ki-ras p21 in the above-mentioned reaction system.

FTase [7] = details: not numerically described; cited from earlier work
[8] = test system: NIH 3T3 fibroblasts transformed by oncogene EJ-ras; test: Inhibitory activity on cell growth of NIH 3T3/EJ-ras; type: cell-based
Protocol: Inhibitory Activity on Cell Growth
The antitumor activity was measured by using NIH 3T3 fibroblasts transformed by oncogene EJ-ras (hereinafter referred to as "NIH 3T3/EJ-ras").
NIH 3T3/EJ-ras cells were suspended in a DME medium (Nissui KK) containing 10% fetal bovine serum, penicillin (100 U/ml) and streptomycin (100 μg/ml) (hereinafter referred to as medium A) in a cell concentration of 1.0×10^4 cells/ml. Each well of a […] microtiter plate was inoculated with 0.1 ml of the cell suspension, and the system was monolayer cultured by incubation in a carbondioxide incubator at 37° C. for 24 hours. To each well was added 0.1 ml of a test compound appropriately diluted with medium A, followed by incubation in the carbondioxide incubator at 37° C. for 72 hours. The cells were recovered by trypsinization, and the number of the cells was counted with a cell counter. A concentration of the test compound for 50% inhibition of cell growth (IC50) was calculated.

FTase of yeast origin = details: ras protein of yeast origin as substrate; read-out: IC50 against FTase of yeast origin; cited from earlier work

Row | IC50 (FTase [1]) | MIC [2] | MIC [3] | MIC [4] | SMILES | inhibitory activity against FTase (in words) (FTase [1]) | antimicrobial activity (in words) [5] | FTase inhibitory activity (in words) (FTase [7]) | further results
1 | 23 µM | 0.65 µg/mL (≈ 1.53 µM) | > 100 µg/mL | 0.65 µg/mL (≈ 1.53 µM) | CC(C)=CCC/C(C)=C/CC/C(C)=C/CC/C(C)=C/C(=O)NC1=CC(=O)C2OC2C1=O (stereo not drawn) [Compound I-5, 4,5-Epoxy-1-geranylgeranoylamino-3,6-dioxocyclohexene] | obvious inhibitory activity against FTase | remarkable antimicrobial activity | – | –
2 | – | – | – | – | CCCC[C@@H](C)/C=C(C)/C=C(\C)C(=O)NC1=CC(=O)[C@@H]2O[C@@H]2C1=O [IVa, reference compound] | – | – | the activity of these compounds can be detected | IC50 (FTase [6]; Experiment 2): 60 µM
3 | 21 µM | 0.46 µg/mL (≈ 1.29 µM) | 0.91 µg/mL (≈ 2.55 µM) | 0.46 µg/mL (≈ 1.29 µM) | CC(C)=CCC/C(C)=C/CC/C(C)=C/C(=O)NC1=CC(=O)[C@@H]2O[C@@H]2C1=O (relative stereo) [Compound I-1, 4,5-Epoxy-1-farnesoylamino-3,6-dioxocyclohexene] | obvious inhibitory activity against FTase | remarkable antimicrobial activity | – | IC50 ([8]; Mus musculus, NIH3T3, NIH 3T3/EJ-ras, 72 hours): 4.3 µM; inhibitory activity on growth (in words) ([8]; Table 3 summary): obvious inhibitory activity on growth of the NIH 3T3 fibroblasts transformed by oncogene EJ-ras; IC50 (FTase [6]; Experiment 1): 18 µM; inhibitory activity against FTase (in words) (FTase [6]; Table 1 summary): obvious inhibitory activity against FTase; inhibitory activity compared with manumycin and compound IVa (in words) (FTase [6]; Table 1 summary, as compared with manumycin and compound IVa): significantly strong as compared with those of manumycin and compound IVa
4 | – | – | – | – | CCCCC(C)/C=C(C)/C=C/C(=O)NC1=CC(=O)[C@@H]2O[C@@H]2C1=O (stereo partly drawn) [IVc] | – | – | the activity of these compounds can be detected | –
5 | – | – | – | – | CCCCC(C)/C=C(\C)C(=O)NC1=CC(=O)[C@@H]2O[C@@H]2C1=O (stereo partly drawn) [IVb] | – | – | the activity of these compounds can be detected | –
6 | 21 µM | 0.08 µg/mL (≈ 0.249 µM) | > 100 µg/mL | 0.04 µg/mL (≈ 0.124 µM) | CCCCCCCCCCCC(=O)NC1=CC(=O)C2OC2C1=O (stereo not drawn) [Compound I-2, 4,5-Epoxy-l-lauroylamino-3,6-dioxocyclohexene] | obvious inhibitory activity against FTase | remarkable antimicrobial activity | – | –
7 | 19 µM | 0.65 µg/mL (≈ 1.62 µM) | > 100 µg/mL | 0.33 µg/mL (≈ 0.822 µM) | CCCCC/C=C\C/C=C\CCCCCCCC(=O)NC1=CC(=O)C2OC2C1=O (stereo not drawn) [Compound I-4, 4,5-Epoxy-1-linoleoylamino-3,6-dioxocyclohexene] | obvious inhibitory activity against FTase | remarkable antimicrobial activity | – | –
8 | – | – | – | – | CCCC[C@@H](C)/C=C(C)/C=C(\C)C(=O)NC1=C[C@](O)(/C=C/C=C/C=C/C(=O)NC2=C(O)CCC2=O)[C@@H]2O[C@@H]2C1=O [Manumycin, reference compound] | – | – | – | IC50 (FTase [6]; Experiment 1): 76 µM; IC50 (FTase [6]; Experiment 2): 35 µM; IC50 (FTase of yeast origin): 5 µM
